Source: article PMC9774241, “Associating Biological Activity and Predicted Structure of Antimicrobial Peptides from Amphibians and Insects” (Antibiotics, 2022)
In brackets after ≈: the same amount, converted by molar mass. Entries after “also recorded” stand apart in the source; their conditions may differ. Residues, ends and D or L forms follow the SMILES beside them. No end group written: not given here.

Tests used:
porcine red blood cells = experiment: Hemolysis assay (HC50); assay type: cell-based, pig; details: for hemolytic activity (in words): porcine RBCs, highest concentration tested 128 µg/mL
Experimental: Peptides were evaluated for toxicity using three independent hemolysis experiments. Whole blood from healthy donor pigs, supplemented with Na Citrate, was purchased from Lampire Biological Laboratories (Pipersville, PA, USA). Red blood cells (RBCs) were washed and isolated by three centrifugation cycles using Roswell Park Memorial Institute medium (RPMI; Thermo-Fisher Scientific) to create a 1% (v/v) RBC solution. […] Following a minimum 30 min incubation at 37 °C, plates were centrifuged and ½ volume from each supernatant was transferred to a new 96-well plate. The absorbance of these wells was measured at 415 nm. To quantify hemolytic activity and determine the AMP concentration that lyses 50% of the RBCs (HC50), absorbance reading from wells containing RBCs treated with 11 μL of a 2% TritonX-100 detergent solution (TX-100) or RPMI (AMP solvent-only) were used to define 100% and 0% hemolysis, respectively. All centrifugation steps were performed at 500× g for five minutes in an Allegra-6R centrifuge (Beckman Coulter, Brea, CA, USA).

[1] = test system: Staphylococcus aureus ATCC 29213; assay type: cell-based; details: broth microdilution in MHB, peptide 128 down to 0.5 µg/mL, 20–24 h at 37 °C, no visible growth; range of three independent experiments
Outline: (§1)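 CLSI broth microdilution in MHB, adapted for cationic peptides, in polypropylene plates; peptides 2-fold from 128 to 0.5 µg/mL, inoculum 2–8 × 10^5 cfu/mL. Incubated 20–24 h at 37 °C; MIC = lowest concentration with no visible growth.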

[2] = test system: Escherichia coli ATCC 25922; assay type: cell-based; details: broth microdilution in MHB, peptide 128 down to 0.5 µg/mL, 20–24 h at 37 °C, no visible growth; range of three independent experiments
Outline: as §1

[3] = test system: Salmonella enterica serovar Enteritidis (human clinical isolate); assay type: cell-based; details: broth microdilution in MHB, peptide 128 down to 0.5 µg/mL, 20–24 h at 37 °C, no visible growth; range of three independent experiments
Outline: as §1

HEK293 cells = experiment: alamarBlue cell viability assay (cytotoxicity); assay type: cell-based, human
Experimental: The human embryonic kidney cell line HEK293 and the corresponding growth media and supplements were purchased from the ATCC. The cells were maintained in Eagle’s Minimum Essential Medium (EMEM) supplemented with 10% fetal bovine serum (FBS) and 1% Penicillin-Streptomycin solution and grown in a 5% CO2 incubator at 37 °C. Approximately 1 × 10^4 cells were distributed to each well of a 96-well flat-bottom cell culture plate (Corning #3595, Corning, NY, USA). Cells were incubated overnight to allow them to adhere. Lyophilized 80 µg peptide aliquots were resuspended to 1.28 mg/mL with UltraPure deionized water and serially diluted in polypropylene 96-well microtiter plates from 128-0.5 µg/mL. TX-100 was diluted to 2% in UltraPure deionized water and added as a positive control. Complete growth medium was added to the peptides and TX-100 containing wells. Spent growth medium of wells with adhered cells was replaced with the contents of wells containing serially diluted peptides or TX-100. Cells were incubated for four hours at 37 °C in 5% CO2 incubator. Growth medium containing peptides or TX-100 was replaced with fresh growth medium containing 10% (v/v) alamarBlue (Bio-Rad Laboratories, Hercules, CA, USA) and incubated for 20 h. Fluorescence was measured at excitation of 540 nm and emission of 590 nm in a Cytation 5 plate reader (Agilent BioTek, Winooski, VT, USA) and results recorded and analyzed with Gen5 software (Agilent BioTek, Winooski, VT, USA). The average fluorescence reads of TX-100 and growth media only wells were used to calculate 0% and 100% cell viability, respectively. The percentage of viable cells at each peptide concentration was determined by: cell viability%=1−fluorescence100% viable− fluorescencepeptide/fluorescence100% viable−fluorescence0% viable×100%

For RPRPQQVPPRPPHPRLRR [PaVa1], the “hemolytic activity (in words)” value (porcine red blood cells) was “not toxic”.

In the case of `CC[C@H](C)[C@H](NC(=O)CNC(=O)[C@H](CCCNC(=N)N)NC(=O)[C@H](CC(C)C)NC(=O)[C@H](CC(C)C)NC(=O)CN)C(=O)N[C@@H](CC(C)C)C(=O)NCC(=O)N[C@@H](C)C(=O)NCC(=O)N[C@@H](CCCCN)C(=O)N[C@@H](CCCCN)C(=O)N[C@H](C(=O)N[C@H](C(=O)N[C@@H](CS)C(=O)NCC(=O)N[C@@H](CC(C)C)C(=O)N[C@@H](CO)C(=O)NCC(=O)N[C@@H](CC(C)C)C(=O)N[C@@H](CS)C(=O)O)C(C)C)[C@@H](C)CC` [OdMa2] (H-GLLRGILGAGKKIVCGLSGLC-OH), the “MIC, S. aureus ATCC 29213” value [1] is reported as 4 to 8 µg/mL, the “MIC, E. coli ATCC 25922” value [2] is reported as 4 µg/mL (≈ 1.97 µM) and the “MIC, Salmonella Enteritidis” value [3] is reported as 8 to 16 µg/mL. For the same compound, the “HC50 (hemolytic 50 concentration)” value (porcine red blood cells; 1% porcine RBCs in RPMI, peptide 128 down to 1 µg/mL, minimum 30 min at 37 °C, absorbance 415 nm, three independent experiments) was 128 µg/mL.

With SWLSKSVKKLVNKKNYTRLEKLAKKKLFNE [TeRu4] the “toxicity to HEK293 cells (in words)” value (HEK293 cells; any of the concentrations tested, up to 128 µg/mL) was “not toxic”, the “MIC, E. coli ATCC 25922” value [2] was 1 µg/mL and the “MIC, Salmonella Enteritidis” value [3] was 2 to 4 µg/mL. The “hemolytic activity (in words)” value (porcine red blood cells) was “not hemolytic at the concentrations tested; also recorded: not toxic”.

`CC[C@H](C)[C@H](NC(=O)[C@H](CO)NC(=O)[C@@H]1CCCN1C(=O)[C@H](CC(C)C)NC(=O)[C@@H](NC(=O)[C@H](CCCCN)NC(=O)[C@H](C)NC(=O)[C@H](C)NC(=O)[C@H](CC(C)C)NC(=O)CNC(=O)[C@H](C)NC(=O)[C@@H](NC(=O)[C@@H](NC(=O)[C@@H]1CCCN1C(=O)[C@H](CC(C)C)NC(=O)[C@H](Cc1ccccc1)NC(=O)[C@H](CCCNC(=N)N)NC(=O)[C@H](CCC(N)=O)NC(=O)[C@H](CCC(=O)O)NC(=O)[C@@H](N)CCC(=O)O)C(C)C)C(C)C)C(C)C)C(=O)N[C@H](C(=O)N[C@@H](CS)C(=O)N[C@@H](C)C(=O)N[C@H](C(=O)N[C@H](C(=O)N[C@@H](CCCCN)C(=O)N[C@@H](CCCCN)C(=O)N[C@@H](CS)C(=O)O)[C@@H](C)O)C(C)C)[C@@H](C)CC` [RaSy2] (H-EEQRFLPVVAGLAAKVLPSIICAVTKKC-OH; N-terminus and C-terminus assumed) was tested, and the “MIC, S. aureus ATCC 29213” value [1] was 64 to 128 µg/mL, the “MIC, E. coli ATCC 25922” value [2] was 64 µg/mL (≈ 21.4 µM) and the “MIC, Salmonella Enteritidis” value [3] was > 128 µg/mL.

GSSSRSCRCIRLSRLSSKRT [NaVi4] was tested, and the “MIC, S. aureus ATCC 29213” value [1] was > 128 µg/mL, the “MIC, E. coli ATCC 25922” value [2] was > 128 µg/mL and the “MIC, Salmonella Enteritidis” value [3] was > 128 µg/mL.

In the case of `CC(C)C[C@H](NC(=O)CN)C(=O)N[C@@H](CC(C)C)C(=O)NCC(=O)N[C@@H](CCCCN)C(=O)N[C@H](C(=O)N[C@@H](CC(C)C)C(=O)NCC(=O)N[C@H](C(=O)NCC(=O)N[C@@H](CCCCN)C(=O)N[C@@H](CCCCN)C(=O)N[C@H](C(=O)N[C@@H](CC(C)C)C(=O)N[C@@H](CS)C(=O)NCC(=O)N[C@H](C(=O)N[C@@H](CO)C(=O)NCC(=O)N[C@@H](CCCNC(=N)N)C(=O)N[C@@H](CS)C(=O)O)C(C)C)C(C)C)C(C)C)C(C)C` [RaOm4] (H-GLLGKVLGVGKKVLCGVSGRC-OH; N-terminus and C-terminus assumed), the “MIC, S. aureus ATCC 29213” value [1] is reported as 64 to 128 µg/mL, the “MIC, E. coli ATCC 25922” value [2] is reported as 4 to 8 µg/mL and the “MIC, Salmonella Enteritidis” value [3] is reported as 32 µg/mL (≈ 15.7 µM).

In the case of KIKIPWGKVKDFLVGGMKAVGKK [TeBi1], the HEK293 cell viability (HEK293 cells; at 128 µg/mL, mean of three independent experiments) is reported as 40%, the “cytotoxicity to HEK293 cells (in words)” value (HEK293 cells; at concentrations lower than 128 µg/mL) is reported as “low or no cytotoxicity at lower concentrations” and the “MIC, S. aureus ATCC 29213” value [1] is reported as 4 to 8 µg/mL. The “MIC, E. coli ATCC 25922” value [2] was 1 to 2 µg/mL, the “MIC, Salmonella Enteritidis” value [3] was 4 to 8 µg/mL and the “hemolytic activity (in words)” value (porcine red blood cells) was “not hemolytic at the concentrations tested”.
